Measured values taken from patent US10383871B2, “Azetidine derivatives” (Vernalis (R&D) Ltd, priority 2008, dated 2019).

experiment: Plasma concentrations after oral administration in laboratory rats; format: in vivo, rat

Structure (SMILES)	plasma concentrations after oral administration
O=C(Nc1cccnc1)N1CC(Oc2ccc(-c3ccccc3)cc2)C1 [Example 4, 3-(Biphenyl-4-yloxy)-azetidine-1-carboxylic acid pyridin-3-ylamide]	high and prolonged plasma concentrations
O=C(Nc1cccnn1)N1CC(Oc2ccc(-c3ccccc3F)cn2)C1 [Example 18, 3-[5-(2-Fluoro-phenyl)-pyridin-2-yloxy]-azetidine-1-carboxylic acid pyridazin-3-ylamide]	high and prolonged plasma concentrations
COCCOc1cccc(-c2ccc(OC3CN(C(=O)Nc4cccnn4)C3)nc2)c1 [Example 7, 3-{5-[3-(2-Methoxy-ethoxy)-phenyl]-pyridin-2-yloxy}-azetidine-1-carboxylic acid pyridazin-3-ylamide]	high and prolonged plasma concentrations

The next lines start with the values.

plasma concentrations after oral administration	Structure (SMILES)
high and prolonged plasma concentrations	O=C(Nc1cccnn1)N1CC(Oc2ccc(-c3ccccc3)cn2)C1 [Example 13, 3-(5-Phenyl-pyridin-2-yloxy)-azetidine-1-carboxylic acid pyridazin-3-ylamide]
high and prolonged plasma concentrations	COc1ccccc1-c1ccc(OC2CN(C(=O)Nc3cccnn3)C2)nc1 [Example 17, 3-[5-(2-Methoxy-phenyl)-pyridin-2-yloxy]-azetidine-1-carboxylic acid pyridazin-3-ylamine]
